Measurements as given in patent publication EP0452101B1, “Spiro bridged and unbridged heterocyclic compounds” (ISRAEL INSTITUTE FOR BIOLOGICAL RESEARCH, priority 1990, dated 1991).

What was measured:
[1] = system: Male white mice of the CD-1 strain; experiment: Pharmacodynamic profile and general toxicity, Part B (signs, mortality, LD50); type: in vivo; design: key to Altered spontaneous motor activity (Mot): increased (inc); decreased (dec); key to Piloerection (Pil) / Hypothermia (Hyp) / Salivation (Sal) / Lacrimation (Lac) / Diarrhea (Dia) / Mydriasis (Myd): sli = slight; mod = moderate; sev = severe; conditions: for Analgesia (Ana) / Convulsive seizure (Con) / Respiratory distress (Res) / Tremors (Tre): animals affected/treated
Description: Male white mice of the CD-1 strain (Charles River, UK), within the body weight range of 18-26 g, were used throughout this study, carried out on AF123, AF125 and AF125(N).
Furthermore, these initial trials clearly established that the major signs of reactions to treatment consisted primarily of signs characteristic for potential cholinomimetic activity of the test material, such as tremors, salivation, lacrimation, diarrhea, analgesia, hypothermia and vasodilation. […]

[2] = system: AF64A-injected mature rats; experiment: 8-arm radial maze (RAM) in AF64A-treated rats, Part A; type: in vivo; conditions: AF125 0.5 mg./kg. i.p.
Description: This animal model mimics the cholinergic hypofunction and cognitive dysfunction in SDAT (Fisher and Hanin, loc cit; Fisher et al, Neurosci. Lett. 102: 325-331, 1989); the method described in the latter publication was used here.
Forty eight mature male (11-12 months) rats which were used in this study. They were injected icv with AF64A (3 nmole/2 µl./side) 8 months earlier, at the age of three months. One week before the behavioral testing, rats were transferred to individual cages and were food restricted until reaching 90% of their free feeding weight (the rats had free access to water). The room was illuminated 12 hrs a day (6:00 to 18:00) and behavioral testing sessions were carried out during the mornings. After reaching 90% of free feeding weight, rats received about 4 food pellets per day (Altromin, 15 g.) in order to further reduce the rats' weights. Two days before behavioral testing the rats were fed with precision pellets (Bioserv Inc.) which were later used for reinforcement in the maze.
Behavioral tests were conducted in an elevated (70cm) 8-arms radial maze, made of PVC. […]
Due to the size of the batch (48 rats) the experiment was conducted in two phases. […] The correct choices, number of errors and total time scores were analyzed by a 2-way ANOVA (2x2) (Injection-AF64A/saline and Treatment-AF125 0.5 mg./kg./saline).

CC1=NCC2(CN3CCC2CC3)O1 (racemic) [AF125, 2-Methyl-spiro(1,3 oxazoline-5,3')quinuclidine]
Altered spontaneous motor activity (Mot) ([1]; 5 mg/kg i.v.): dec
Lacrimation (Lac) ([1]; 5 mg/kg i.v.): sli
Mydriasis (Myd) ([1]; 5 mg/kg i.v.): sli
Salivation (Sal) ([1]; 5 mg/kg i.v.): sli
Analgesia (Ana) ([1]; 5 mg/kg i.v.): 5/5
Convulsive seizure (Con) ([1]; 5 mg/kg i.v.): 0/5
Respiratory distress (Res) ([1]; 5 mg/kg i.v.): 0/5
Tremors (Tre) ([1]; 5 mg/kg i.v.): 0/5
Altered spontaneous motor activity (Mot) ([1]; 10 mg/kg i.v.): dec
Diarrhea (Dia) ([1]; 10 mg/kg i.v.): sli
Hypothermia (Hyp) ([1]; 10 mg/kg i.v.): sli
Lacrimation (Lac) ([1]; 10 mg/kg i.v.): sli
Mydriasis (Myd) ([1]; 10 mg/kg i.v.): sli
Piloerection (Pil) ([1]; 10 mg/kg i.v.): sli
Salivation (Sal) ([1]; 10 mg/kg i.v.): mod
Analgesia (Ana) ([1]; 10 mg/kg i.v.): 5/5
Convulsive seizure (Con) ([1]; 10 mg/kg i.v.): 0/5
Respiratory distress (Res) ([1]; 10 mg/kg i.v.): 0/5
Tremors (Tre) ([1]; 10 mg/kg i.v.): 0/5
Convulsive seizure (Con) ([1]; 10 mg/kg p.os): 0/5
Respiratory distress (Res) ([1]; 10 mg/kg p.os): 0/5
Tremors (Tre) ([1]; 10 mg/kg p.os): 0/5
Altered spontaneous motor activity (Mot) ([1]; 20 mg/kg i.v., Table 9): dec
Diarrhea (Dia) ([1]; 20 mg/kg i.v., Table 9): mod
Hypothermia (Hyp) ([1]; 20 mg/kg i.v., Table 9): mod
Lacrimation (Lac) ([1]; 20 mg/kg i.v., Table 9): sev
Mydriasis (Myd) ([1]; 20 mg/kg i.v., Table 9): mod
Piloerection (Pil) ([1]; 20 mg/kg i.v., Table 9): mod
Salivation (Sal) ([1]; 20 mg/kg i.v., Table 9): sev
Analgesia (Ana) ([1]; 20 mg/kg i.v., Table 9): 5/5
Convulsive seizure (Con) ([1]; 20 mg/kg i.v., Table 9): 0/5
Respiratory distress (Res) ([1]; 20 mg/kg i.v., Table 9): 1/5
Tremors (Tre) ([1]; 20 mg/kg i.v., Table 9): 2/5
Lacrimation (Lac) ([1]; 20 mg/kg p.os): sli
Salivation (Sal) ([1]; 20 mg/kg p.os): sli
Analgesia (Ana) ([1]; 20 mg/kg p.os): 0/5
Convulsive seizure (Con) ([1]; 20 mg/kg p.os): 0/5
Respiratory distress (Res) ([1]; 20 mg/kg p.os): 0/5
Tremors (Tre) ([1]; 20 mg/kg p.os): 0/5
Altered spontaneous motor activity (Mot) ([1]; 40 mg/kg i.v.): dec
Diarrhea (Dia) ([1]; 40 mg/kg i.v.): mod
Hypothermia (Hyp) ([1]; 40 mg/kg i.v.): mod
Lacrimation (Lac) ([1]; 40 mg/kg i.v.): sev
Mydriasis (Myd) ([1]; 40 mg/kg i.v.): mod
Piloerection (Pil) ([1]; 40 mg/kg i.v.): mod
Salivation (Sal) ([1]; 40 mg/kg i.v.): sev
Analgesia (Ana) ([1]; 40 mg/kg i.v.): 5/5
Convulsive seizure (Con) ([1]; 40 mg/kg i.v.): 1/5
Respiratory distress (Res) ([1]; 40 mg/kg i.v.): 3/5
Tremors (Tre) ([1]; 40 mg/kg i.v.): 5/5
Altered spontaneous motor activity (Mot) ([1]; 40 mg/kg p.os): dec
Diarrhea (Dia) ([1]; 40 mg/kg p.os): sli
Hypothermia (Hyp) ([1]; 40 mg/kg p.os): sli
Lacrimation (Lac) ([1]; 40 mg/kg p.os): mod
Piloerection (Pil) ([1]; 40 mg/kg p.os): sli
Salivation (Sal) ([1]; 40 mg/kg p.os): sli
Analgesia (Ana) ([1]; 40 mg/kg p.os): 3/5
Convulsive seizure (Con) ([1]; 40 mg/kg p.os): 0/5
Respiratory distress (Res) ([1]; 40 mg/kg p.os): 0/5
Tremors (Tre) ([1]; 40 mg/kg p.os): 0/5
Altered spontaneous motor activity (Mot) ([1]; 50 mg/kg p.os): dec
Diarrhea (Dia) ([1]; 50 mg/kg p.os): sli
Hypothermia (Hyp) ([1]; 50 mg/kg p.os): sli
Lacrimation (Lac) ([1]; 50 mg/kg p.os): mod
Mydriasis (Myd) ([1]; 50 mg/kg p.os): sli
Piloerection (Pil) ([1]; 50 mg/kg p.os): mod
Salivation (Sal) ([1]; 50 mg/kg p.os): mod
Analgesia (Ana) ([1]; 50 mg/kg p.os): 5/5
Convulsive seizure (Con) ([1]; 50 mg/kg p.os): 0/5
Respiratory distress (Res) ([1]; 50 mg/kg p.os): 0/5
Tremors (Tre) ([1]; 50 mg/kg p.os): 2/5
LD50 ([1]; Intravenous Injection, 95% Confidence Limits 66.6 - 71.2): 68.9 mg/kg
LD50 ([1]; Oral Administration, 95% Confidence Limits 118.4 - 152.5): 134.4 mg/kg
Side-effects [2]: Only two saline-injected rats treated with AF125 had diarrhoea
correct choices out of the first eight entries ([2]; AF64A-injected rats): 6.53±0.36
